Data on 2 compounds can be found in patent US10300044B2, “Polymorphic forms of methyl((1S)-1-(((2S)-2-(5-(4′-(2-((2S)-1-((2S)-2-((methoxycarbonyl)amino)-3-methylbutanoyl)-2-pyrrolidinyl)-1H-imidazol-5-yl)-4-biphenylyl)-1H-imidazol-2-yl)-1-pyrrolidinyl)carbonyl)-2-methylpropyl)carbamate and salts thereof” (Cipla Limited, priority 2014, dated 2019).

The nature of one data set: Hygroscopicity. Type of data set: physicochemical.
For data set [1] the following is noted: N-1 versus N-2 crystalline dihydrochloride salts; cited from earlier work.

Counter-ions that a name gives are not always drawn.

As for `COC(=O)N[C@H](C(=O)N1CCC[C@H]1c1ncc(-c2ccc(-c3ccc(-c4cnc([C@@H]5CCCN5C(=O)[C@@H](NC(=O)OC)C(C)C)[nH]4)cc3)cc2)[nH]1)C(C)C` [Form A, methyl((1 S)-1-(((2S)-2-(5-(4′-(2-((2S)-1-((2S)-2-((methoxycarbonyl)amino)-3-methylbutanoyl)-2-pyrrolidinyl)-1H-imidazol-5-yl)-4-biphenylyl)-1H-imidazol-2-yl)-1-pyrrolidinyl)carbonyl)-2-methylpropyl)carbamate], the hygroscopicity result in the data set “Hygroscopicity” is on record as “substantially non-hygroscopic”.
With `COC(=O)N[C@H](C(=O)N1CCC[C@H]1c1nc(-c2ccc(-c3ccc(-c4c[nH]c([C@@H]5CCCN5C(=O)[C@@H](NC(=O)OC)C(C)C)n4)cc3)cc2)c[nH]1)C(C)C` [Form N-2, methyl((1S)-1-(((2S)-2-(5-(4′-(2-((2S)-1-((2S)-2-((methoxycarbonyl)amino)-3-methylbutanoyl)-2-pyrrolidinyl)-1H-imidazol-5-yl)-4-biphenylyl)-1H-imidazol-2-yl)-1-pyrrolidinyl)carbonyl)-2-methylpropyl) carbamate dihydrochloride], the “thermodynamic stability among polymorphs” value in data set [1] is given as “thermodynamically most stable polymorph”.
